Earlier results, collected in patent publication US20220313611A1, “METHODS TO PREPARE DRY POWDERS USING SUSPENSION BASED THIN FILM FREEZING” (BOARD OF REGENTS, THE UNIVERSITY OF TEXAS SYSTEM, priority 2021, published 2022).

C=CC[C@@H]1/C=C(\C)C[C@H](C)C[C@H](OC)[C@H]2O[C@@](O)(C(=O)C(=O)N3CCCC[C@H]3C(=O)O[C@H](/C(C)=C/[C@@H]3CC[C@@H](O)[C@H](OC)C3)[C@H](C)[C@@H](O)CC1=O)[C@H](C)C[C@@H]2OC [TAC, Tacrolimus]
solubility in water: practically insoluble in water
